Earlier results as cited in the CATMoS acute toxicity set (Mansouri et al. 2021).
“And” between values parts separate entries of the source, which are not always exact repeats. Identical values can stand only once.

Test: rat acute oral toxicity
Settings: in vivo

Row | SMILES | LD50
1 | Cc1ncc(CO)c(C(=O)O)c1O | 7500 mg/kg
2 | C1CCNC1 | 300 mg/kg
3 | CN(C)CCN(Cc1ccsc1)c1ccccn1 | 525 mg/kg
4 | CNC(=O)Oc1c(C(C)C)ccc(C)c1Cl | 250 mg/kg
5 | COc1c(Cl)ccc2[nH]c(C(F)(F)F)nc12 | 3.15 mg/kg
6 | CCCCCC(C=Cn1ccnc1)OCc1ccccc1 (stereo unspecified) | 2550 mg/kg
7 | CCOC(C1=NCC(C)(CC)CN1)c1ccc(Cl)cc1 (stereo unspecified) | 110 mg/kg
8 | CCCC(=O)OC/C=C(\C)CCC=C(C)C | 10700 mg/kg
9 | S=C=Nc1ccc(N=C=S)cc1 | 21 mg/kg
10 | CN(C)c1ccc(N)cc1 | 48 mg/kg
11 | CC(C)(S)C(N)C(=O)O (racemic) | 365 mg/kg
12 | ClCC(Cl)=C(Cl)Cl | 350 mg/kg
13 | CC1=C(C(=O)OCCN2CCN(C(c3ccccc3)c3ccccc3)CC2)C(c2cccc([N+](=O)[O-])c2)C(P2(=O)OCC(C)(C)CO2)=C(C)N1 (stereo unspecified) | 194 mg/kg
14 | CCCCCCCNC(=O)Oc1ccc2c(c1)C1(C)CCN(C)C1N2C (stereo unspecified) | 25.1 mg/kg
15 | COP(=O)(OC)OC(c1ccc(Cl)cc1)P(=O)(OC)OC (stereo unspecified) | 3200 mg/kg
16 | CCC(=O)OC(CC)(c1ccccc1)C1CCN(C)C1 (stereo unspecified) | 460 mg/kg
17 | CNC(=O)ON=CC(C)(C)OC | 15 mg/kg
18 | O=C(O)C(F)(F)C(F)(F)C(F)(F)C(F)(F)C(F)(F)C(F)(F)C(F)(F)C(F)(F)C(F)(F)C(F)F | 518 mg/kg
19 | Clc1cccc(Cl)c1Nc1ncccn1 | 4720 mg/kg
20 | COC(=O)C(C(=O)Cc1c(C)n(C(=O)c2ccc(Cl)cc2)c2ccc(OC)cc12)C(=O)OC | 208 mg/kg
21 | Cc1nc(N)nc(N2N=CCC2C)n1 (stereo unspecified) | 3200 mg/kg
22 | NNc1nnc(NN)c2ccccc12 | 350 mg/kg and 400 mg/kg
23 | CCC[C@@H]1C[C@@H](C(=O)N[C@@H]([C@H]2O[C@H](SC)[C@H](O)[C@@H](O)[C@H]2O)[C@H](C)Cl)N(C)C1 | 2620 mg/kg and 2190 mg/kg
24 | COCOC | 6420 mg/kg
25 | C=CC(=O)OCCN(C)C | 455 mg/kg
26 | C=CS(C)(=O)=O | 570 mg/kg

Row | SMILES | LD50
27 | CCC1=CSC(S)N1 (stereo unspecified) | 35 mg/kg
28 | C=CCOC(=O)CCC1CCCCC1 | 585 mg/kg
29 | CCOP(=O)(Oc1ccc([N+](=O)[O-])cc1)SCC (stereo unspecified) | 17.9 mg/kg
30 | CCSC(=O)NCCCN(C)C | 1300 mg/kg
31 | COC(=O)C1(O)c2ccccc2-c2ccc(Cl)cc21 (stereo unspecified) | 3100 mg/kg
32 | CCCCCCCCCc1cc(C)cc(Cc2cc(C)cc(CCCCCCCCC)c2O)c1O | 33000 mg/kg
33 | CC(=O)N1CCOCC1 | 6130 mg/kg
34 | Cc1cc2c(C(C)C)c(O)c(O)c(C=O)c2c(O)c1-c1c(C)cc2c(C(C)C)c(O)c(O)c(C=O)c2c1O | 2320 mg/kg
35 | Nc1nc2cc(I)ccc2o1 | 1000 mg/kg
36 | ClC(Cl)(Cl)c1cccc(C(Cl)(Cl)Cl)c1 | 2920 mg/kg
37 | C=CCN1CCC23CCCCC2C1Cc1ccc(O)cc13 (stereo unspecified) | 850 mg/kg
38 | CCCCC(CC)COP(=O)(O)O (stereo unspecified) | 3450 mg/kg
39 | CCOP(=O)(OCC)Sc1c(Cl)c(Cl)c(Cl)c(Cl)c1Cl | 925 mg/kg
40 | ClC1=C(Cl)C2(Cl)C(C(Cl)Cl)CC1(Cl)C2(Cl)Cl (stereo unspecified) | 1600 mg/kg
41 | CC(=O)Nc1c(I)c(C(=O)O)c(I)c(N(C)C(C)=O)c1I | 38100 mg/kg
42 | COc1cc([N+](=O)[O-])ccc1N | 997 mg/kg
43 | O=C1CCc2cccc3c2N1CC3 | 321 mg/kg
44 | Clc1cc2oc3c(Cl)c(Cl)c(Cl)cc3c2cc1Cl | 0.916 mg/kg
45 | CC(=O)C=Cc1ccccc1 | 2030 mg/kg
46 | COc1ccc2c(=O)c3ccccc3oc2c1CN1CCCCC1 | 183 mg/kg
47 | CCC(SC(C)=NOC(=O)NC)C(N)=O (stereo unspecified) | 14.1 mg/kg
48 | Cc1c(C(=O)O)nnn1-c1ccccc1 | 1500 mg/kg
49 | C=Cc1ccccc1Cl | 5200 mg/kg
50 | NNC(=S)NN | 21.6 mg/kg
51 | O=C1c2ccccc2C(=O)N1SC1CCCCC1 | 2600 mg/kg
52 | Cc1c(Cl)c(Cl)c2nc(C(F)(F)F)[nH]c2c1Cl | 18.3 mg/kg

Row | SMILES | LD50
53 | CC(C)(CNc1ccc(N=O)cc1)[N+](=O)[O-] | 2730 mg/kg
54 | CN(C)C(=O)C(CCN1CCC(O)(c2ccc(Cl)c(C(F)(F)F)c2)CC1)(c1ccccc1)c1ccccc1 | 86 mg/kg
55 | CCN(Cc1ccncc1)N=O | 40 mg/kg
56 | CNC(=O)ON=C1SCCOC1(C)C | 0.6 mg/kg
57 | Cc1cc(O)c(C(C)(C)C)cc1C | 1030 mg/kg
58 | Cc1nc(C(C)C)c(=O)[nH]c1C | 903 mg/kg
59 | CC(C)CCCCCCCCCCOC(=O)c1ccccc1C(=O)OCCCCCCCCCCC(C)C | 31400 mg/kg
60 | C=CC(=O)NC(C)C | 375 mg/kg
61 | COc1ccccc1OC(=O)[C@H](C)c1ccc(CC(C)C)cc1 | 2060 mg/kg
62 | Cn1c(=O)c2c(ncn2CCNCc2cccnc2)n(C)c1=O | 3700 mg/kg
63 | CCC(CCN(CC=C(C)C)CC=C(C)C)(C(N)=O)c1cccc2ccccc12 (stereo unspecified) | 283 mg/kg
64 | CCCCC(CC)COC(C[n+]1ccccc1)c1ccccc1 (stereo unspecified) | 250 mg/kg
65 | CCCCOCCC#N | 7460 mg/kg
66 | CCOC(=O)Nc1ccc2c(c1)N(C(=O)CCN1CCOCC1)c1ccccc1S2 | 1000 mg/kg
67 | Nc1ccc2cc(S(=O)(=O)O)cc(O)c2c1N=Nc1ccc(-c2ccc(N=Nc3ccc(O)c(C(=O)O)c3)cc2)cc1 | 22400 mg/kg
68 | COc1ccc(NC(=O)N(C)C)cc1Cl | 1600 mg/kg
69 | CN(N=O)C(C)(C)c1ccccc1 | 2100 mg/kg
70 | CCC(C)CO (stereo unspecified) | 4170 mg/kg
71 | Nc1ccc(S(=O)(=O)O)c2cccc(S(=O)(=O)O)c12 | 56000 mg/kg
72 | CCCCN1CCCC1=Nc1ccc(Cl)c(Cl)c1 | 3050 mg/kg
73 | OCC(Cl)CCl (stereo unspecified) | 90 mg/kg
74 | CC(=O)OC[C@H]1O[C@@H](n2ncc(=O)[nH]c2=O)[C@H](OC(C)=O)[C@@H]1OC(C)=O | 12000 mg/kg
75 | C=CC(=O)OCC(=O)OCC | 215 mg/kg
76 | CC(C)COC(=O)C(C)Oc1ccc(Oc2ccc(Cl)cc2)cc1 (stereo unspecified) | 723 mg/kg
77 | C=C1C(=CC=C2CCCC3(C)C2CCC3C(C)CCCC(C)C)CC(O)CC1O (stereo unspecified) | 340 mg/kg
78 | O=NN1CCOC1 | 1500 mg/kg

Row | SMILES | LD50
79 | C=CCOC(=O)CCCCCCC | 570 mg/kg
80 | CC(=O)Nc1ccncc1 | 446 mg/kg
81 | CCN(CC)c1ccc(C=O)cc1 | 6400 mg/kg
82 | CC(=O)C=CC1=C(C)CCCC1(C)C | 4590 mg/kg
83 | CCOCC(Cl)C(OCC)OCC (stereo unspecified) | 1320 mg/kg
84 | CCOP(=O)(O)O | 1600 mg/kg
85 | CC(=O)Nc1ccc2c(c1)OCO2 | 1000 mg/kg
86 | CCCCCOC(C[n+]1ccccc1)c1ccc(C(C)C)cc1 (stereo unspecified) | 250 mg/kg
87 | O=C(OC1CCC(N2CCCCC2)CC1)C1CCCCC1 (stereo unspecified) | 2500 mg/kg
88 | Nc1ccc(OC(F)(F)C(F)F)c(N)c1 | 1070 mg/kg
89 | CNN | 58 mg/kg
90 | CN(C)CCCN1c2ccccc2CCc2ccc(Cl)cc21 | 914 mg/kg and 613 mg/kg
91 | O=C(Cl)Oc1cccc2ccccc12 | 2550 mg/kg
92 | COc1cc2[nH]c(C)c(CCN3CCN(c4ccccc4)CC3)c2cc1OC | 1000 mg/kg
93 | C=CCNCC=C | 578 mg/kg
94 | Cc1csc2c(Cl)cccc12 | 300 mg/kg
95 | C=CCCCCCCCCC(=O)OC | 1560 mg/kg
96 | NC1Cc2ccccc2C1 | 326 mg/kg
97 | NCCc1c[nH]c2ccccc12 | 300 mg/kg
98 | COC1(C)CC(c2ccccc2)c2c(c3ccccc3oc2=O)O1 (stereo unspecified) | 4000 mg/kg
99 | CC=CC#N | 167 mg/kg and 501 mg/kg
100 | CCNc1ccc(C(=C2C=CC(=[N+](C)C)C=C2)c2ccc(N(C)C)cc2)c2ccccc12 | 960 mg/kg
101 | NCCN(CCN)CCN | 246 mg/kg
102 | CC=CC(=O)N(CC)c1ccccc1C | 1500 mg/kg
103 | CCOC(=O)C1=C(C)NC(C)=C(C(=O)OCC)C1c1ccccc1/C=C/C(=O)OC(C)(C)C | 880 mg/kg
104 | CCCCCCCC(=O)OCC | 26000 mg/kg

Row | SMILES | LD50
105 | ClC1=C(Cl)[C@]2(Cl)[C@H]3[C@H]([C@H]4C=C[C@H]3C4)[C@@]1(Cl)C2(Cl)Cl | 7 mg/kg
106 | Nc1ccc(F)c(F)c1 | 340 mg/kg
107 | CCCSP(=O)(OCC)Oc1cnn(-c2ccc(Cl)cc2)c1 (stereo unspecified) | 237 mg/kg
108 | CCNC(C)c1ccccc1 (stereo unspecified) | 360 mg/kg
109 | CCC(O)CC | 1870 mg/kg
110 | CN1C(C(=O)Nc2ccccn2)=C(OC(=O)C(C)(C)C)c2sc(Cl)cc2S1(=O)=O | 24.6 mg/kg
111 | CC(C(=O)O)c1ccc(-c2ccccc2F)cc1 (stereo unspecified) | 337 mg/kg
112 | CCCCCCc1ccc(C(CBr)OCC(CC)CCCC)cc1 (stereo unspecified) | 250 mg/kg
113 | CNC1(c2ccccc2Cl)CCCCC1=O (stereo unspecified) | 447 mg/kg
114 | Oc1cc(Cl)ccc1Oc1ccc(Cl)cc1Cl | 3700 mg/kg
115 | COCC(=O)O | 1000 mg/kg
116 | CC1(C)C(=O)N(Cl)C(=O)N1Br | 1390 mg/kg
117 | OC(c1ccccc1)(c1ccccc1)C1CN2CCC1CC2 (stereo unspecified) | 440 mg/kg
118 | CCCCNCCO | 1150 mg/kg
119 | O=S(=O)(O)c1c(Cl)c(Cl)c(Cl)c2[nH]c(C(F)(F)F)nc12 | 218 mg/kg
120 | CC(C)CNC(=O)NS(=O)(=O)c1ccc(Cl)cc1 | 1100 mg/kg
121 | C#CCN1C(=O)CN=C(c2ccccc2)c2cc([N+](=O)[O-])ccc21 | 876 mg/kg
122 | CCCNNc1ccccc1 | 13 mg/kg
123 | Clc1ccc(OCC2=NCCN2)cc1Cl | 100 mg/kg
124 | CCCC(C)OC(N)=O (stereo unspecified) | 421 mg/kg
125 | Cc1ccc(C(=O)c2ccc(CC(=O)N3CCN(C)CC3)n2C)cc1 | 1000 mg/kg
126 | Cc1ccc(CCOC(=O)c2cccnc2)cc1 | 3500 mg/kg
127 | CC(=O)Nc1cccc(N=Nc2ccc(N(C)C)cc2)c1 | 5910 mg/kg
128 | Cc1ccc(C(=O)c2ccc(CC(=O)NCCn3cnc4c3c(=O)n(C)c(=O)n4C)n2C)cc1 | 1200 mg/kg
129 | OCc1cccc(Oc2ccccc2)c1 | 1500 mg/kg
130 | O=S(=O)(SC(Cl)(Cl)Cl)C(Cl)Cl | 3620 mg/kg

Row | SMILES | LD50
131 | O=C1OC(=O)c2ccc3c4c(ccc1c24)C(=O)OC3=O | 7400 mg/kg
132 | C=C(C)c1ccccc1 | 4900 mg/kg
133 | CN(C)[SiH](N(C)C)N(C)C | 594 mg/kg
134 | CN(C)CCNN | 2110 mg/kg
135 | C=CCOc1ccccc1C(=O)NCCO | 1150 mg/kg
136 | c1ccc(Nc2cccc3ccccc23)cc1 | 1620 mg/kg
137 | C[Si]1(C)N[Si](C)(C)N[Si](C)(C)N1 | 500 mg/kg
138 | C=CCC#N | 115 mg/kg
139 | COP(=S)(OC)Oc1ccc(SC)c(C)c1 | 180 mg/kg
140 | CCOP(=O)(OCC)C(SCC)(Sc1ccccc1)P(=O)(OCC)OCC | 24 mg/kg
141 | CCOCCOCCOc1ccccc1 | 2140 mg/kg
142 | Cc1ccc(N)cc1[N+](=O)[O-] | 6860 mg/kg
143 | CNC(=O)Oc1ccc(NC(=O)OC)c(C(C)C)c1 | 27 mg/kg
144 | O=C1CCc2cc(C(=O)CCN3CCN(c4cccc(Cl)c4)CC3)ccc2N1 | 500 mg/kg
145 | CCOP(=O)(OCC)OC(C)=CC(=O)OC(C)c1ccccc1 (stereo unspecified) | 65 mg/kg
146 | CCCCCCCCC=CCCCCCCCC(=O)OCC1CO1 (stereo unspecified) | 3520 mg/kg
147 | C[Si]1(C)OCCN(CCO)CCO1 | 3400 mg/kg
148 | CS(=O)(=O)N(Cc1cccnc1)c1ccc(F)cc1F | 1060 mg/kg
149 | Nc1ncc2[nH]cnc2n1 | 723 mg/kg
150 | Cc1cc(CCN2CCN(c3cccc(Cl)c3)CC2)n[nH]1 | 570 mg/kg
151 | CCOC(=O)c1ccccc1O | 1320 mg/kg
